The values below come from patent publication US10010547B2 (CASCADIAN THERAPEUTICS, INC., priority 2014, dated 2018).

Structures are written as SMILES. Where a name gives a salt, the structure may show the parent alone. Read-outs that look alike come from different tables or passages of the source.

Assay [1] addresses Chk-1 kinase (Homo sapiens (Human), UniProt O14757). Kind of assay: Chk-1 Kinase Inhibiting Activity (33P-ATP filter assay, CHKtide substrate). Type of assay: biochemical. On the procedure:
Chk-1 Kinase Inhibiting Activity
The compounds of the invention were tested for activity against Chk-1 kinase using the materials and protocols set out below.
Base Reaction buffer: 20 mM Hepes (pH 7.5), 10 mM MgCl2, 1 mM EGTA, 0.02% Brij35, 0.02 mg/ml BSA, 0.1 mM Na3VO4, 2 mM DTT, 1% DMSO
*Required cofactors are added individually to each kinase reaction
(i) Prepare indicated substrate in freshly prepared Base Reaction Buffer
(ii) Deliver any required cofactors to the substrate solution above
(iii) Deliver indicated kinase into the substrate solution and gently mix
(iv) Deliver compounds in DMSO into the kinase reaction mixture
(v) Deliver ^33P-ATP (specific activity 0.01 μCi/μl final) into the reaction mixture to initiate the reaction.
(vi) Incubate kinase reaction for 120 minutes at room temperature
(vii) Reactions are spotted onto P81 ion exchange paper (Whatman #3698-915)
(viii) Wash filters extensively in 0.1% phosphoric acid.
(ix) Dry filters and measure counts in scintillation counter
Recombinant full length construct, N-terminal GST tagged, purified from insect cells.
No special measures were taken to activate this kinase.
Final concentration in assay=0.5 nM
Peptide sequence: [[…]]
Final concentration in assay=20 μM
No additional cofactors are added to the reaction mixture
From the results obtained by following the above protocol, the IC50 values against Chk-1 kinase of each of the compounds of Examples 1-153 were determined and these are shown in Table 3.

Assay [2] relates to MIA PaCa-2 cells. Kind of assay: Gemcitabine Combination Cell Assay (Cell Titer Glo). Type of assay: cell-based. As to conditions: for IC50: Homo sapiens; for 10xLS: approximate concentration of Chk1 inhibitor that results in a 10-fold reduction in the IC50 of gemcitabine alone; for 2xLS: approximate concentration of Chk1 inhibitor that results in a two-fold reduction in the IC50 of gemcitabine alone. On the procedure: Gemcitabine Combination Cell Assay
Exponentially growing MIA PaCa-2 (ATCC CRL-1420) cells are treated with trypsin to remove cells from the plate surface. Approximately 10,000 cells/well are plated in 96 well plates in RPMI containing 10% fetal bovine serum, 1% sodium pyruvate and 1% L-GlutaMax. Cells are allowed to adhere to the plate surface overnight. Serial half-log dilutions of Chk1 inhibitor test compounds and gemcitabine are made with a final highest concentration of 3000 nM and 100 nM, respectively. Chk1 inhibitors and gemcitabine are combined so that each concentration of Chk1 inhibitor is added to each concentration of gemcitabine. Each drug is also tested as a single agent. Drugs are added to adherent cells (in duplicate) and incubated for 72 h. At 72 h the cells are treated with Promega Cell Titer Glo reagent for approximately 15 minutes. Luminescence (relative light units, RLU) is recorded using a BMG Polarstar Omega plate reader. The single agent concentration that results in a 50% reduction in total signal (IC50) is calculated using PRISM software and a four-parameter non-linear regression curve fit. For combination studies the RLUs are plotted using PRISM on an XY plot with the gemcitabine concentration on the X axis and RLU on the Y axis. The RLU for each concentration of Chk1 inhibitor is plotted as a function of gemcitabine concentration. The IC50 for gemcitabine alone and at each concentration of Chk1 is determined using a four-parameter non-linear regression curve fit. The approximate concentration of Chk1 inhibitor that results in a two and ten-fold reduction in the IC50 of gemcitabine alone is calculated as an indication of synergistic potency.
From the results obtained by following the above protocol, the IC50 values against MIAPaca-2 cells of the Chk1 inhibitor alone (Chk1 IC50), the approximate concentration of Chk1 inhibitor that results in a two-fold (2×LS) and a 10-fold (10×LS) reduction in the IC50 of gemcitabine alone of each of the compounds of Examples 1-154 are shown in Table 4.

Setting [3] is: against Chk-1 kinase, read-out: IC50.
Setting [4] is: Chk1 inhibitor alone, MIA PaCa-2 cells, 72 h, read-out: Chk1 IC50.

Chk-1 kinase, sequence (O14757 whole entry): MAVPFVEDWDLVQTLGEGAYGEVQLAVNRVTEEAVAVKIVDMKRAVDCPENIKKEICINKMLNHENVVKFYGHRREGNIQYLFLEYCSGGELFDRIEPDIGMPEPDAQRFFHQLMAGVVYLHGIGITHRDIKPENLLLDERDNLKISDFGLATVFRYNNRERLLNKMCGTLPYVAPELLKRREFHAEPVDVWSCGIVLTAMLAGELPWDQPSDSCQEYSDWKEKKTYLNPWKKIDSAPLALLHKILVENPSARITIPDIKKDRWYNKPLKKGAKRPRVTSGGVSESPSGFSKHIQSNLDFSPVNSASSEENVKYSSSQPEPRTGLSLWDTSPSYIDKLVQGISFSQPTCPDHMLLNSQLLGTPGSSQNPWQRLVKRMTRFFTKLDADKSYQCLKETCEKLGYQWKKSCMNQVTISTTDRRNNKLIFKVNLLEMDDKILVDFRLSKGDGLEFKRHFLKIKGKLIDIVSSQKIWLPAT

Take `CCN1CCC(c2ccc(-c3cc(Nc4cnc(C#N)cn4)n[nH]3)c(OC)c2)CC1` [Example 60, 5-[[5-[4-(1-ethyl-4-piperidyl)-2-methoxy-phenyl]-1H-pyrazol-3-yl]amino]pyrazine-2-carbonitrile hydrochloride]: in assay [1] (setting [3]), the IC50 was found to be 0.1 nM. In assay [2] (MIA PaCa-2, 72 h, read-out: Chk1 IC50 (nM)), the IC50 stood at 329 nM. In addition, in assay [2] (MIA PaCa-2 cells, 72 h), the “10xLS” value came out at 100 nM and the “2xLS” value is on record as 3 nM.
Regarding `COc1c(-c2cc(Nc3cnc(C#N)cn3)n[nH]2)ccc(C2CCN(C)CC2)c1Cl` [Example 69, 5-[[5-[3-chloro-2-methoxy-4-(1-methyl-4-piperidyl)phenyl]-1H-pyrazol-3-yl]amino]pyrazine-2-carbonitrile], in assay [1] (setting [3]), the IC50 was found to be 7.9 nM. In assay [2] (setting [4]), the IC50 was 2200 nM. For the same compound, in assay [2] (MIA PaCa-2 cells, 72 h), the “10xLS” value was 1000 nM and the “2xLS” value was found to be 100 nM.
For `COc1cc(C2CCOCC2)ccc1-c1cc(Nc2cnc(C#N)cn2)n[nH]1` [Example 48, 5-[[5-(2-methoxy-4-tetrahydropyran-4-yl-phenyl)-1H-pyrazol-3-yl]amino]pyrazine-2-carbonitrile] the same measures were 1.5 nM, 2020 nM, 1000 nM and 100 nM.
The corresponding values for `COc1cc(CN2CCCC2)ccc1-c1cc(Nc2cnc(C#N)cn2)n[nH]1` [Example 101, 5-[[5-[2-methoxy-4-(pyrrolidin-1-ylmethyl)phenyl]-1H-pyrazol-3-yl]amino]pyrazine-2-carbonitrile] are 0.055 nM, 199 nM, less than 100 nM and 3 nM.
For `COc1cc(OCC2CCOCC2)ccc1-c1cc(Nc2cnc(C#N)cn2)n[nH]1` [Example 75, 5-[[5-[2-methoxy-4-(tetrahydropyran-4-ylmethoxy)phenyl]-1H-pyrazol-3-yl]amino]pyrazine-2-carbonitrile] the same measures were 0.55 nM, greater than 3000 nM, greater than 3000 nM and greater than 3000 nM.
Turning to `COc1cc(N2CCN(C(C)C)CC2)cc(F)c1-c1cc(Nc2cnc(C#N)cn2)n[nH]1` [Example 137, 5-[[5-[4-(4-isopropylpiperazin-1-yl)-2-fluoro-6-methoxy-phenyl]-1H-pyrazol-3-yl]amino]pyrazine-2-carbonitrile], the IC50 in assay [1] (setting [3]) stood at 0.048 nM. In assay [2] (setting [4]), the concentration for half-maximal inhibition (IC50) was found to be 256 nM. In assay [2] (MIA PaCa-2 cells, 72 h), the “10xLS” value is recorded as less than 100 nM and the “2xLS” value is less than 3 nM.
The corresponding values for `CN1CCC(c2ccc(-c3cc(Nc4cnc(C#N)cn4)n[nH]3)c(F)c2)CC1` [Example 21, 5-[[5-[2-fluoro-4-(1-methyl-4-piperidyl)phenyl]-1H-pyrazol-3-yl]amino]pyrazine-2-carbonitrile] are 2.4 nM, 3180 nM, 1000 nM and 100 nM.
The corresponding values for `COc1c(-c2cc(Nc3cnc(C#N)cn3)n[nH]2)ccc(C2CCNCC2)c1Cl` [Example 70, 5-[[5-[3-chloro-2-methoxy-4-(4-piperidyl)phenyl]-1H-pyrazol-3-yl]amino]pyrazine-2-carbonitrile] are 10 nM, 2620 nM, 3000 nM and 300 nM.
For `COc1cc(C2CCNCC2)ccc1-c1cc(Nc2cnc(C)cn2)n[nH]1` [Example 55, N-[5-[2-methoxy-4-(4-piperidyl)phenyl]-1H-pyrazol-3-yl]-5-methyl-pyrazin-2-amine] the same measures were 227 nM, greater than 3000 nM, greater than 3000 nM and 1000 nM.
In the case of `CCNCc1ccc(-c2cc(Nc3cnc(C#N)cn3)n[nH]2)c(OC)c1` [Example 90, 5-[[5-[4-(ethylaminomethyl)-2-methoxy-phenyl]-1H-pyrazol-3-yl]amino]pyrazine-2-carbonitrile], the IC50 in assay [1] (setting [3]) was found to be 0.058 nM. The IC50 in assay [2] (setting [4]) is 390 nM. In addition, in assay [2] (MIA PaCa-2 cells, 72 h), the “10xLS” value is less than 300 nM and the “2xLS” value is given as 10 nM.
For `COc1cc(OCC2CCCN2C)ccc1-c1cc(Nc2cnc(C#N)cn2)n[nH]1` (stereo not drawn) [Example 35, 5-[[5-[2-methoxy-4-[(1-methylpyrrolidin-2-yl)methoxy]phenyl]-1H-pyrazol-3-yl]amino]pyrazine-2-carbonitrile] the same measures were 0.14 nM, 217 nM, 100 nM and 3 nM.
For `COc1cc(CNC2CCN(C)CC2)ccc1-c1cc(Nc2cnc(C#N)cn2)n[nH]1` [Example 37, 5-[[5-[2-methoxy-4-[[(1-methyl-4-piperidyl)amino]methyl]phenyl]-1H-pyrazol-3-yl]amino]pyrazine-2-carbonitrile] the same measures were 0.11 nM, 182 nM, less than 100 nM and 3 nM.
For the compound `COc1cc([C@H]2CCN(C)C[C@@H]2F)ccc1-c1cc(Nc2cnc(C#N)cn2)n[nH]1` [Example 96, 5-[[5-[4-[(3(R,S),4(R,S))-3-fluoro-1-methyl-4-piperidyl]-2-methoxy-phenyl]-1H-pyrazol-3-yl]amino]pyrazine-2-carbonitrile], the IC50 in assay [1] was 0.4 nM. In addition, the IC50 in assay [2] (setting [4]) stood at 730 nM. For the same compound, in assay [2] (MIA PaCa-2 cells, 72 h), the “10xLS” value is less than 300 nM and the “2xLS” value is 10 nM.
Regarding `COc1cc(N2CCN[C@H](C)C2)ccc1-c1cc(Nc2cnc(C#N)cn2)n[nH]1` [Example 82, 5-[[5-[2-methoxy-4-[(3R)-3-methylpiperazin-1-yl]phenyl]-1H-pyrazol-3-yl]amino]pyrazine-2-carbonitrile], the IC50 in assay [1] (setting [3]) is 0.016 nM. In assay [2] (setting [4]), the IC50 was found to be 74 nM. Besides, in assay [2] (MIA PaCa-2 cells, 72 h), the “10xLS” value is listed as less than 30 nM and the “2xLS” value was less than 3 nM.
For `COc1cc(CN[C@H](C)CN2CCOCC2)ccc1-c1cc(Nc2cnc(C#N)cn2)n[nH]1` [Example 18, 5-[[5-[2-methoxy-4-[[[(1R)-1-methyl-2-morpholino-ethyl]amino]methyl]phenyl]-1H-pyrazol-3-yl]amino]pyrazine-2-carbonitrile], the IC50 in assay [1] (setting [3]) amounted to 0.17 nM. For the same compound, the IC50 in assay [2] (setting [4]) worked out at 1610 nM. In assay [2] (MIA PaCa-2 cells, 72 h), the “10xLS” value was roughly 200 nM and the “2xLS” value is roughly 5 nM.
The corresponding values for `COc1cc(C2CCNCC2)c(F)cc1-c1cc(Nc2cnc(C#N)cn2)n[nH]1` [Example 58, 5-[[5-[5-fluoro-2-methoxy-4-(4-piperidyl)phenyl]-1H-pyrazol-3-yl]amino]pyrazine-2-carbonitrile] are 0.54 nM, 676 nM, 300 nM and 30 nM.
For `COc1cc(OC2CCNCC2)ccc1-c1cc(Nc2cnc(C#N)cn2)n[nH]1` [Example 57, 5-[[5-[2-methoxy-4-(4-piperidyloxy)phenyl]-1H-pyrazol-3-yl]amino]pyrazine-2-carbonitrile] the same measures were 0.071 nM, 337 nM, 100 nM and 3 nM.
The corresponding values for `COc1cc(C2CCNCC2)c(Cl)cc1-c1cc(Nc2cnc(C#N)cn2)n[nH]1` [Example 68, 5-[[5-[5-chloro-2-methoxy-4-(4-piperidyl)phenyl]-1H-pyrazol-3-yl]amino]pyrazine-2-carbonitrile] are 2.9 nM, 1380 nM, 1000 nM and 100 nM.
